Reference: PMC6036575, “Reincarnation of Bacteriocins From the Lactobacillus Pangenomic Graveyard” (Frontiers in Microbiology, 2018)
No end group written: not given here.

What was measured:
[1] = tested on: E. saccharolyticus DPC 4902; test: Well diffusion assay, spectrum of bacteriocin activity; format: cell-based; settings: 50 μl filtered supernatant of E. coli Tuner (DE3) transformants encoding the pediocin PA-1 leader, 7 mm wells, triplicate
Description: (§1) Bacteriocin activity was determined using well diffusion assays (WDAs). For Tuner^TM (DE3) E. coli transformants both the cell supernatant and the cell lysates were analyzed for antimicrobial activity, whilst only the supernatants were analyzed for L. paracasei NFBC338 cells. Supernatant was isolated by centrifugation of the liquid cultures at 4000 RCF for 15 min, these supernatants were then filtered using 0.20 μm membrane filters. For cell lysates, cell pellets were resuspended in 5 ml of phosphate-buffered saline (PBS), cells were lysed by sonication using a MSE Soniprep 150 (MSE, London, UK). Lysates were subsequently centrifuged at 4000 RCF for 15 min and the resulting supernatants were filtered using 0.20 μm membrane filters. For the indicator plates, 50 μl of an overnight culture of the indicator strain was added to the appropriate media containing 1% agar. Plates were cooled and 7 mm wells were bored in the agar. 50 μl of the cell supernatants/lysates being tested were added to each well and plates were refrigerated for 2 h prior to incubation under the appropriate conditions. WDAs were carried out in triplicate for each bacteriocin.
(§2) E. coli Tuner^TM (DE3) cells transformed with the newly constructed plasmids were grown in LB supplemented with glucose to maintain a low-copy number and bacteriocin expression was induced by co-incubation of the clones with 50 μM IPTG for 3 h. WDAs were used to identify bacteriocin activity from the bacterial supernatants and cell lysates. Bacteriocins were exclusively found in the bacterial supernatant. Antimicrobial activity was lower in cases where the native leader of the bacteriocin sequence was used; with only four of the nine strains displaying zones of inhibition against a sensitive indicator (pediocin 20336a has an identical leader to pediocin PA-1). For expression in L. paracasei NFBC338, cells were transformed by electroporation with the bacteriocin-containing pNZ44 vectors. Positive transformants were grown overnight and the neutralized cell free supernatant was used to identify bacteriocin production in WDAs.
(§3) The spectrum of activity was determined using WDAs against 32 indicator strains for bacteriocins produced by the E. coli transformants encoding the pediocin leader (Table 2). Despite being of the same class of bacteriocins, these novel antimicrobials display a varying spectrum of activity. […] Many of these bacteriocins, however, can inhibit a wide range of Gram positive bacteria including potential pathogens such as Enterococcus faecalis. As with most class IIa bacteriocins, these also display potent anti-listerial activity.

[2] = tested on: E.mundtii LMG 10748; test: as above; format: cell-based; settings: 50 μl filtered supernatant of E. coli Tuner (DE3) transformants encoding the pediocin PA-1 leader, 7 mm wells, triplicate
Description: as §1, §2, §3

[3] = tested on: Enterococcus faecalis LMG 7397; test: as above; format: cell-based; settings: 50 μl filtered supernatant of E. coli Tuner (DE3) transformants encoding the pediocin PA-1 leader, 7 mm wells, 1% agar, triplicate
Description: as §1, §2, §3

[4] = tested on: L. amylophilus DSM 20509; test: as above; format: cell-based; settings: 50 μl filtered supernatant of E. coli Tuner (DE3) transformants encoding the pediocin PA-1 leader, 7 mm wells, triplicate
Description: as §1, §2, §3

[5] = tested on: L. apodemi DSM 16654; test: as above; format: cell-based; settings: 50 μl filtered supernatant of E. coli Tuner (DE3) transformants encoding the pediocin PA-1 leader, 7 mm wells, triplicate
Description: as §1, §2, §3

[6] = tested on: L. crustorum JCM 15951; test: as above; format: cell-based; settings: 50 μl filtered supernatant of E. coli Tuner (DE3) transformants encoding the pediocin PA-1 leader, 7 mm wells, triplicate
Description: as §1, §2, §3

[7] = tested on: L. kimchicus JCM 15530; test: as above; format: cell-based; settings: 50 μl filtered supernatant of E. coli Tuner (DE3) transformants encoding the pediocin PA-1 leader, 7 mm wells, triplicate
Description: as §1, §2, §3

[8] = tested on: L. mali DSM 20444; test: as above; format: cell-based; settings: 50 μl filtered supernatant of E. coli Tuner (DE3) transformants encoding the pediocin PA-1 leader, 7 mm wells, triplicate
Description: as §1, §2, §3

[9] = tested on: L. nodensis DSM 16982; test: as above; format: cell-based; settings: 50 μl filtered supernatant of E. coli Tuner (DE3) transformants encoding the pediocin PA-1 leader, 7 mm wells, triplicate
Description: as §1, §2, §3

[10] = tested on: L. paralimentarius DSM 13961; test: as above; format: cell-based; settings: 50 μl filtered supernatant of E. coli Tuner (DE3) transformants encoding the pediocin PA-1 leader, 7 mm wells, triplicate
Description: as §1, §2, §3

[11] = tested on: L. plantarum DSM 13273; test: as above; format: cell-based; settings: 50 μl filtered supernatant of E. coli Tuner (DE3) transformants encoding the pediocin PA-1 leader, 7 mm wells, triplicate
Description: as §1, §2, §3

[12] = tested on: Li. monocytogenes DPC 6893; test: as above; format: cell-based; settings: 50 μl filtered supernatant of E. coli Tuner (DE3) transformants encoding the pediocin PA-1 leader, 7 mm wells, triplicate
Description: as §1, §2, §3

[13] = tested on: Li. monocytogenes DPC 6894; test: as above; format: cell-based; settings: 50 μl filtered supernatant of E. coli Tuner (DE3) transformants encoding the pediocin PA-1 leader, 7 mm wells, triplicate
Description: as §1, §2, §3

[14] = tested on: Li. monocytogenes WSL 1416; test: as above; format: cell-based; settings: 50 μl filtered supernatant of E. coli Tuner (DE3) transformants encoding the pediocin PA-1 leader, 7 mm wells, triplicate
Description: as §1, §2, §3

[15] = tested on: Listeria innocua DPC 3572; test: as above; format: cell-based; settings: 50 μl filtered supernatant of E. coli Tuner (DE3) transformants encoding the pediocin PA-1 leader, 7 mm wells, triplicate
Description: as §1, §2, §3

[16] = tested on: P. clausenii DSM 14800; test: as above; format: cell-based; settings: 50 μl filtered supernatant of E. coli Tuner (DE3) transformants encoding the pediocin PA-1 leader, 7 mm wells, triplicate
Description: as §1, §2, §3

[17] = tested on: P. ethanolidurans DSM 22301; test: as above; format: cell-based; settings: 50 μl filtered supernatant of E. coli Tuner (DE3) transformants encoding the pediocin PA-1 leader, 7 mm wells, triplicate
Description: as §1, §2, §3

[18] = tested on: Pediococcus stilesii DSM 18001; test: as above; format: cell-based; settings: 50 μl filtered supernatant of E. coli Tuner (DE3) transformants encoding the pediocin PA-1 leader, 7 mm wells, triplicate
Description: as §1, §2, §3

[19] = tested on: 32 indicator strains; test: Well diffusion assays against the panel of 32 indicator strains; format: cell-based; settings: for antimicrobial activity / spectrum, in words: crude supernatant from the E. coli heterologous host, pediocin PA-1 leader; for Total no. of strains inhibited: of 32 indicator strains, supernatant of E. coli transformants encoding the pediocin leader
Description: as §1, §2, §3

[20] = tested on: L. innocua DPC3572; test: Bacteriocin activity (BU/ml), dilution series in well diffusion assay; format: cell-based, Listeria innocua; settings: inverse of the highest dilution of bacterial supernatant showing activity in a well diffusion assay
Description: as §1, §2

[21] = tested on: L. amylovorus DSM 20531; test: Well diffusion assay, spectrum of bacteriocin activity; format: cell-based; settings: 50 μl filtered supernatant of E. coli Tuner (DE3) transformants encoding the pediocin PA-1 leader, 7 mm wells, triplicate
Description: as §1, §2, §3

[22] = produced by E. coli Tuner (DE3)
[23] = produced by L. paracasei NFBC338, neutralized cell free supernatant

–KYYGNGLYCG-KHSCSVDWGKATTCIINNGAMAWATGGHQGTHKC—— (bicyclic or more) [Pediocin 20336a (Ped20336), novel pediocin-like class IIa bacteriocin encoded by P. pentosaceus DSM 20336, heterologously expressed]
radius of the zone of inhibition [1]: 5.67 ± 0.47 millimeters | radius of the zone of inhibition [2]: 4.67 ± 0.47 millimeters | radius of the zone of inhibition [3]: 4 ± 0 millimeters | radius of the zone of inhibition [4]: 0.33 ± 0.47 millimeters | radius of the zone of inhibition [5]: 3.67 ± 0.47 millimeters | radius of the zone of inhibition [6]: 1 ± 0 millimeters | radius of the zone of inhibition [7]: 0.33 ± 0.47 millimeters | radius of the zone of inhibition [8]: 6.33 ± 0.47 millimeters | radius of the zone of inhibition [9]: 1.67 ± 0.47 millimeters | radius of the zone of inhibition [10]: 1 ± 0.47 millimeters | radius of the zone of inhibition [11]: 1.33 ± 0.47 millimeters | radius of the zone of inhibition [12]: 2.67 ± 0.47 millimeters | radius of the zone of inhibition [13]: 4.33 ± 0.47 millimeters | radius of the zone of inhibition [14]: 3.33 ± 0.94 millimeters | radius of the zone of inhibition [15]: 7.33 ± 0.47 millimeters | radius of the zone of inhibition [16]: 0.67 ± 0.47 millimeters | radius of the zone of inhibition [17]: 5.67 ± 0.47 millimeters | radius of the zone of inhibition [18]: 1 ± 0 millimeters | antimicrobial activity / spectrum, in words [19]: inhibited the growth of a larger number of the indicators tested than pediocin PA-1 | Total no. of strains inhibited [19]: 18 | Bacteriocin Activity (BU/ml) vs. L. innocua DPC3572 [20, 22]: + (+ = 0 – 160 BU/ml) | Bacteriocin Activity (BU/ml) vs. L. innocua DPC3572 [20, 23]: + (+ = 0 – 160 BU/ml)

–KYYGNGVSCTKKHGCKVNWGQAFTCSVNRFANFGH–G————-NC— (bicyclic or more) [Hordeiocin (Hrd), novel pediocin-like class IIa bacteriocin encoded by L. hordei DSM 19519, heterologously expressed]
radius of the zone of inhibition [1]: 3.67 ± 0.47 millimeters | radius of the zone of inhibition [2]: 2.67 ± 0.47 millimeters | radius of the zone of inhibition [3]: 2.67 ± 0.47 millimeters | radius of the zone of inhibition [4]: 2.50 ± 0.41 millimeters | radius of the zone of inhibition [5]: 2.67 ± 0.47 millimeters | radius of the zone of inhibition [6]: 1 ± 0 millimeters | radius of the zone of inhibition [7]: 3 ± 0 millimeters | radius of the zone of inhibition [8]: 4.33 ± 0.47 millimeters | radius of the zone of inhibition [9]: 3.67 ± 0.47 millimeters | radius of the zone of inhibition [10]: 1 ± 0.47 millimeters | radius of the zone of inhibition [11]: 1.33 ± 0.47 millimeters | radius of the zone of inhibition [12]: 2 ± 0 millimeters | radius of the zone of inhibition [13]: 4 ± 0 millimeters | radius of the zone of inhibition [14]: 2 ± 0.82 millimeters | radius of the zone of inhibition [15]: 4.67 ± 0.47 millimeters | radius of the zone of inhibition [16]: 2 ± 0 millimeters | radius of the zone of inhibition [17]: 3.67 ± 0.47 millimeters | radius of the zone of inhibition [18]: 1 ± 0 millimeters | antimicrobial activity / spectrum, in words [19]: inhibited the growth of a larger number of the indicators tested than pediocin PA-1 | Total no. of strains inhibited [19]: 18 | Bacteriocin Activity (BU/ml) vs. L. innocua DPC3572 [20, 22]: +++ (+++ = 5120 – 10240 BU/ml) | Bacteriocin Activity (BU/ml) vs. L. innocua DPC3572 [20, 23]: ++ (++ = 320 – 2560 BU/ml)

–KYYGNGVTCG-KHSCSVDWGKATTCIINNGAMAWATGGHQGNHKC—– (bicyclic or more) (KYYGNGVTCGKHSCSVDWGKATTCIINNGAMAWATGGHQGNHKC; not fully specified (bridges); cysteine pairing not given here; UniProt P29430 19-62, looked up) [Pediocin PA-1 (PedA), original class IIa bacteriocin of P. acidilactici LMG 2351, used as a control; heterologously expressed, reference compound]
radius of the zone of inhibition [1]: 6 ± 0 millimeters | radius of the zone of inhibition [2]: 5 ± 0 millimeters | radius of the zone of inhibition [3]: 4.33 ± 0.47 millimeters | radius of the zone of inhibition [5]: 3.33 ± 0.47 millimeters | radius of the zone of inhibition [6]: 0.33 ± 0.47 millimeters | radius of the zone of inhibition [8]: 7.67 ± 0.47 millimeters | radius of the zone of inhibition [10]: 0.67 ± 0.47 millimeters | radius of the zone of inhibition [11]: 0.33 ± 0.47 millimeters | radius of the zone of inhibition [12]: 3 ± 0 millimeters | radius of the zone of inhibition [13]: 5 ± 0 millimeters | radius of the zone of inhibition [14]: 3.33 ± 0.94 millimeters | radius of the zone of inhibition [15]: 8 ± 0 millimeters | radius of the zone of inhibition [17]: 5.67 ± 0.47 millimeters | radius of the zone of inhibition [18]: 1 ± 0 millimeters | Total no. of strains inhibited [19]: 14 | Bacteriocin Activity (BU/ml) vs. L. innocua DPC3572 [20, 22]: + (+ = 0 – 160 BU/ml) | Bacteriocin Activity (BU/ml) vs. L. innocua DPC3572 [20, 23]: ++ (++ = 320 – 2560 BU/ml)

–KYYGNGVYCG-KHKCRVDWGQAWGCSVNRWGAAVGTGGKATIGHC— (bicyclic or more) [Ruminicin (Rum), novel pediocin-like class IIa bacteriocin encoded by L. ruminis DSM 20403, heterologously expressed]
radius of the zone of inhibition [1]: 2 ± 0 millimeters | radius of the zone of inhibition [2]: 2 ± 0 millimeters | radius of the zone of inhibition [3]: 1.17 ± 0.24 millimeters | radius of the zone of inhibition [4]: 1.33 ± 0.47 millimeters | radius of the zone of inhibition [21]: 0.67 millimeters | radius of the zone of inhibition [5]: 1.67 ± 0.47 millimeters | radius of the zone of inhibition [6]: 0.33 ± 0.47 millimeters | radius of the zone of inhibition [8]: 2 ± 0 millimeters | radius of the zone of inhibition [12]: 1 ± 0 millimeters | radius of the zone of inhibition [13]: 2 ± 0 millimeters | radius of the zone of inhibition [14]: 1 ± 0 millimeters | radius of the zone of inhibition [15]: 3.33 ± 0.47 millimeters | radius of the zone of inhibition [16]: 1 ± 0 millimeters | radius of the zone of inhibition [17]: 2.17 ± 0.24 millimeters | Total no. of strains inhibited [19]: 14 | Bacteriocin Activity (BU/ml) vs. L. innocua DPC3572 [20, 22]: +++ (+++ = 5120 – 10240 BU/ml) | Bacteriocin Activity (BU/ml) vs. L. innocua DPC3572 [20, 23]: +++ (+++ = 5120 – 10240 BU/ml)
